# Measurements as given in article PMC6858497 (The Journal of physiology, 2019).
# Values joined by “and” are separate entries in the source; they are usually repeats but may differ in a detail not shown here. Equal entries are not always repeated.
# Experiments:
# Type in all cases: cell-based
# GluN1–1a DC1/DC2 = GluN1–1a DC1/DC2 (Rattus norvegicus, UniProt P35439+Q00959+Q62645, R869K/V866F); test: Outside-out patch-clamp recordings, fast application
# GluN1–1a/2BC1/2DC2 = GluN1–1a/2BC1/2DC2 (Rattus norvegicus, UniProt P35439+Q00959+Q00960+Q62645, A876H/F846L/G856D/H848F/K857R/M851T/M860L/Q845K/R869K/V861L/V866F); test: Two-electrode voltage-clamp recordings, Xenopus oocytes; settings: agonist concentration-response, isoform 1a
# GluN1–1a BC1/DC2 = GluN1–1a BC1/DC2 (Rattus norvegicus, UniProt P35439+Q00959+Q00960+Q62645, A876H/F846L/G856D/H848F/K857R/M851T/M860L/Q845K/R869K/V861L/V866F); test: Outside-out patch-clamp recordings, fast application
# GluN1–1b D/D = GluN1–1b D/D (Rattus norvegicus, UniProt P35439+Q62645); test: as above
# [1] = biological target: GluN1–1a AC1/AC2 (GluN1/2AC1/2AC2) (Rattus norvegicus, UniProt P35439+Q00959); test: as above
# GluN1–1a B/B = GluN1–1a B/B (Rattus norvegicus, UniProt P35439+Q00960); test: as above
# GluN1–1a/2B = GluN1–1a/2B (Rattus norvegicus, UniProt P35439+Q00960); test: Two-electrode voltage-clamp recordings, Xenopus oocytes; settings: agonist concentration-response, isoform 1a
# GluN1–1b DC1/DC2 = GluN1–1b DC1/DC2 (Rattus norvegicus, UniProt P35439+Q00959+Q62645, R869K/V866F); test: Outside-out patch-clamp recordings, fast application
# GluN1–1b BC1/DC2 = GluN1–1b BC1/DC2 (Rattus norvegicus, UniProt P35439+Q00959+Q00960+Q62645, A876H/F846L/G856D/H848F/K857R/M851T/M860L/Q845K/R869K/V861L/V866F); test: as above
# GluN1–1b AC1/AC2 = GluN1–1b AC1/AC2 (Rattus norvegicus, UniProt P35439+Q00959); test: as above
# GluN1–1a D/D = GluN1–1a D/D (Rattus norvegicus, UniProt P35439+Q62645); test: as above
# GluN1–1a/2D = GluN1–1a/2D (Rattus norvegicus, UniProt P35439+Q62645); test: Two-electrode voltage-clamp recordings, Xenopus oocytes
# [2] = biological target: GluN1–1b A/A (GluN1/2A/2A) (Rattus norvegicus, UniProt P35439+Q00959); test: Outside-out patch-clamp recordings, fast application
# GluN1–1b B/B = GluN1–1b B/B (Rattus norvegicus, UniProt P35439+Q00960); test: as above
# GluN1–1b AC1/BC2 = GluN1–1b AC1/BC2 (Rattus norvegicus, UniProt P35439+Q00959+Q00960, A876H/F846L/G856D/H848F/K857R/M851T/M860L/Q845K/V861L); test: as above
# [3] = biological target: GluN1–1a A/A (GluN1/2A/2A) (Rattus norvegicus, UniProt P35439+Q00959); test: as above
# GluN1–1a AC1/BC2 = GluN1–1a AC1/BC2 (Rattus norvegicus, UniProt P35439+Q00959+Q00960, A876H/F846L/G856D/H848F/K857R/M851T/M860L/Q845K/V861L); test: as above
# GluN1–1a BC1/BC2 = GluN1–1a BC1/BC2 (Rattus norvegicus, UniProt P35439+Q00959+Q00960, A876H/F846L/G856D/H848F/K857R/M851T/M860L/Q845K/V861L); test: as above
# GluN1–1b BC1/BC2 = GluN1–1b BC1/BC2 (Rattus norvegicus, UniProt P35439+Q00959+Q00960, A876H/F846L/G856D/H848F/K857R/M851T/M860L/Q845K/V861L); test: as above
# [4] = 1 mM glutamate 3–5 ms, 100 μM glycine
# [5] = deactivation, two-exponential fit
# [6] = fitted percentage of the fast component
# [7] = weighted deactivation time constant
# [8] = deactivation, single-exponential fit
# Sequence of GluN1–1a A/A (GluN1/2A/2A) (Q00959 23-1464, other chains not shown): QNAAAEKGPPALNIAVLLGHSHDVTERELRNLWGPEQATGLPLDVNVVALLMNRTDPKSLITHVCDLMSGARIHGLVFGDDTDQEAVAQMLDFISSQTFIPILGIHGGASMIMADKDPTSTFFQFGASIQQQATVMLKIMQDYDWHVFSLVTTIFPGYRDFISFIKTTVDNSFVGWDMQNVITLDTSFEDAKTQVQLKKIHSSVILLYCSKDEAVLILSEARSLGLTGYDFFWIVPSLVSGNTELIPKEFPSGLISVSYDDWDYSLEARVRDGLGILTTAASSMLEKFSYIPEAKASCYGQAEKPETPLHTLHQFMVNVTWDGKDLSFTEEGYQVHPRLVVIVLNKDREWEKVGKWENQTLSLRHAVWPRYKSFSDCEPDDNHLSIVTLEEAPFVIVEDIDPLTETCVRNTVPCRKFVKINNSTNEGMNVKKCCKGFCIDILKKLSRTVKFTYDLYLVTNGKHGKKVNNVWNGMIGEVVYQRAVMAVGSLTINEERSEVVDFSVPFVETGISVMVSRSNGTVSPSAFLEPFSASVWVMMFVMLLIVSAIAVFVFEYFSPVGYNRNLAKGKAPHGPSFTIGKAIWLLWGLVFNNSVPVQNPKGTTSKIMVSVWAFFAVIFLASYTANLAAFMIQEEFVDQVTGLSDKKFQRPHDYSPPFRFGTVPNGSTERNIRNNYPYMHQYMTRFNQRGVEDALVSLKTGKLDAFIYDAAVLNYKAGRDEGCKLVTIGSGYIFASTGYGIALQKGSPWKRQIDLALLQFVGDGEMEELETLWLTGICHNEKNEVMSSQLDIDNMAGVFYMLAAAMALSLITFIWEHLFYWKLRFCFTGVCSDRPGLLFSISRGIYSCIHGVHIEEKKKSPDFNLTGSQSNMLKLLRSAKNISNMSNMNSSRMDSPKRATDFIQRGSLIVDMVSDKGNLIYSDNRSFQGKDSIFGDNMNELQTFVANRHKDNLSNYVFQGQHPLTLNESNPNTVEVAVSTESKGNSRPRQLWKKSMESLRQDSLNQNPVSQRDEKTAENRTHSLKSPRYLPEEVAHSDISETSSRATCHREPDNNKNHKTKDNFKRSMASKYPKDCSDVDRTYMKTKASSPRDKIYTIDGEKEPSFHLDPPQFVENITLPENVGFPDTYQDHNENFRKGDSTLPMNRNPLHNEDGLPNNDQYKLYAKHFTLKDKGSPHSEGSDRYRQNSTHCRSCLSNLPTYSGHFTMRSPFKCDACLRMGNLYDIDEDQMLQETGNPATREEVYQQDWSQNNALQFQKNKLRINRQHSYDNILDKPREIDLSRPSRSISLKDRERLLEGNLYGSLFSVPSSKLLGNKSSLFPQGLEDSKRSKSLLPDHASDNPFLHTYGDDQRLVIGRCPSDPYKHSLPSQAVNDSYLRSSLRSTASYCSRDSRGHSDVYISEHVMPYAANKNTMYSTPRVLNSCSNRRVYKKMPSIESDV
# Sequence of GluN1–1b A/A (GluN1/2A/2A) (Q00959 23-1464, other chains not shown): as above
# Sequence of GluN1–1b D/D (Q62645 28-1323, other chains not shown): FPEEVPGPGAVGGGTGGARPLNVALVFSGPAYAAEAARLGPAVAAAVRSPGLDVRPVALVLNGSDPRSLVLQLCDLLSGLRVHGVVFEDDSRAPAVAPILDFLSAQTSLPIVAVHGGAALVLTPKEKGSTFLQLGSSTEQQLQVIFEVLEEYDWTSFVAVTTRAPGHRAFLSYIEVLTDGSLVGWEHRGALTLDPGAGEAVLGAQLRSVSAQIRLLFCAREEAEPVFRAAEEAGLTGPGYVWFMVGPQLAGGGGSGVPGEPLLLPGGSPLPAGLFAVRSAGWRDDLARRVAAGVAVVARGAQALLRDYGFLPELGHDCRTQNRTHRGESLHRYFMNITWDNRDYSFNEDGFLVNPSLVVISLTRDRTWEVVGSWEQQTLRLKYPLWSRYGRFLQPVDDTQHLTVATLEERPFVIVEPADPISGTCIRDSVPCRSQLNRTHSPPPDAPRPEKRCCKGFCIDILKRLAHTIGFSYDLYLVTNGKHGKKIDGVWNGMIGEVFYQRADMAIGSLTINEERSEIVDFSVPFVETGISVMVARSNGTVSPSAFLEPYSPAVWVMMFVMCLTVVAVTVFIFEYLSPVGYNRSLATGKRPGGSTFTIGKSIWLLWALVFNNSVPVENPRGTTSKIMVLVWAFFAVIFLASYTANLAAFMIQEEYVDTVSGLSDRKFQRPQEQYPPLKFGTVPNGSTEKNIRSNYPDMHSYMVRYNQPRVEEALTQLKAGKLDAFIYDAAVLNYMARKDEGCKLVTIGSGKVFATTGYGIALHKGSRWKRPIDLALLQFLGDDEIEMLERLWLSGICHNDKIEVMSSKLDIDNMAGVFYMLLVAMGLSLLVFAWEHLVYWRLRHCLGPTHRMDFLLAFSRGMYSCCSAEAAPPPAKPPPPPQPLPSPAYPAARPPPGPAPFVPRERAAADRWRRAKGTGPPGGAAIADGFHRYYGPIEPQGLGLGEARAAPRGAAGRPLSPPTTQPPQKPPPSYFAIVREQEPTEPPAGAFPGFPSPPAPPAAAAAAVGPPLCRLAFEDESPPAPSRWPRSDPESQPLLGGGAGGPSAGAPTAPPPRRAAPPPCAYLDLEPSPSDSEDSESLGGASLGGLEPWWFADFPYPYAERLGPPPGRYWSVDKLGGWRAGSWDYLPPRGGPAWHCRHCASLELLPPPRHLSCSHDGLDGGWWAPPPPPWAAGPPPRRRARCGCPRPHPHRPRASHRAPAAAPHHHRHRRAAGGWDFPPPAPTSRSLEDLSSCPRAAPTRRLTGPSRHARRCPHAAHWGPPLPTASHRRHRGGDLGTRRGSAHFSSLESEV
# Sequence of GluN1–1a D/D (Q62645 28-1323, other chains not shown): as above
# Sequence of GluN1–1a/2D (Q62645 28-1323, other chains not shown): as above
smiles,measurement,setting,value
N[C@@H](CCC(=O)O)C(=O)O [glutamate],rise time (10–90%),GluN1–1a DC1/DC2; [4],8.6 ± 4.8 ms
same,τfast,GluN1–1a DC1/DC2; [5],527 ± 225 ms
same,τslow,GluN1–1a DC1/DC2; [5],6912 ± 848 ms
same,% fast,GluN1–1a DC1/DC2; [6],17 ± 7%
same,τw,GluN1–1a DC1/DC2; [7],"5700 ± 560 ms and 5700 ± 561 ^*^,# ms"
same,nH (Hill coefficient),GluN1–1a/2BC1/2DC2,1.4
same,rise time (10–90%),GluN1–1a BC1/DC2; [4],10.9 ± 2.5 ms
same,τfast,GluN1–1a BC1/DC2; [5],516 ± 42 ms
same,τslow,GluN1–1a BC1/DC2; [5],3521 ± 446 ms
same,% fast,GluN1–1a BC1/DC2; [6],54 ± 6%
same,τw,GluN1–1a BC1/DC2; [7],"1770 ± 120 ms and 1767 ± 117 ^*^,#,$ ms"
same,rise time (10–90%),GluN1–1b D/D; [4],3.5 ± 0.4 ms
same,τfast,GluN1–1b D/D; [5],245 ± 32 ms
same,τslow,GluN1–1b D/D; [5],1609 ± 148 ms
same,% fast,GluN1–1b D/D; [6],40 ± 7%
same,τw,GluN1–1b D/D; [7],"992 ± 68 ^*^,# ms"
same,rise time (10–90%),[1]; [4],4.2 ± 0.9 ms
same,τfast,[1]; [8],78 ± 13 ms
same,τw,[1]; [7],"78 ± 13 ^*^,#,$ ms"
same,rise time (10–90%),GluN1–1a B/B; [4],14.9 ± 1.2 ms
same,τfast,GluN1–1a B/B; [5],240 ± 23 ms
same,τslow,GluN1–1a B/B; [5],1020 ± 72 ms
same,% fast,GluN1–1a B/B; [6],59 ± 5%
same,τw,GluN1–1a B/B; [7],"548 ± 45 ^*^,$ ms"
same,nH (Hill coefficient),GluN1–1a/2B,1.6
same,rise time (10–90%),GluN1–1b DC1/DC2; [4],4.5 ± 0.7 ms
same,τfast,GluN1–1b DC1/DC2; [5],256 ± 92 ms
same,τslow,GluN1–1b DC1/DC2; [5],1399 ± 141 ms
same,% fast,GluN1–1b DC1/DC2; [6],14 ± 4%
same,τw,GluN1–1b DC1/DC2; [7],"1230 ± 90 ms and 1230 ± 86 ^*^,# ms"
same,rise time (10–90%),GluN1–1b BC1/DC2; [4],9.2 ± 1.3 ms
same,τfast,GluN1–1b BC1/DC2; [5],127 ± 31 ms
same,τslow,GluN1–1b BC1/DC2; [5],634 ± 132 ms
same,% fast,GluN1–1b BC1/DC2; [6],50 ± 15%
same,τw,GluN1–1b BC1/DC2; [7],"290 ± 120 ms and 288 ± 22 ^*^,#,$ ms"
same,rise time (10–90%),GluN1–1b AC1/AC2; [4],6.3 ± 2.8 ms
same,τfast,GluN1–1b AC1/AC2; [8],53 ± 7 ms
same,τw,GluN1–1b AC1/AC2; [7],"53 ± 7^#,$ ms"
same,rise time (10–90%),GluN1–1a D/D; [4],6.2 ± 0.7 ms
same,τfast,GluN1–1a D/D; [5],832 ± 146 ms
same,τslow,GluN1–1a D/D; [5],7436 ± 890 ms
same,% fast,GluN1–1a D/D; [6],24 ± 3%
same,τw,GluN1–1a D/D; [7],"5714 ± 458 ^*^,# ms"
same,EC50,"GluN1–1a/2D; GluN1 isoform 1a, glutamate with 100 μM glycine, glycine with 300 μM glutamate",270 ± 10 nM
same,nH (Hill coefficient),"GluN1–1a/2D; agonist concentration-response, isoform 1a",1.7
same,rise time (10–90%),[2]; [4],4.8 ± 0.3 ms
same,τfast,[2]; [8],56 ± 6 ms
same,τw,[2]; [7],"56 ± 6^#,$ ms"
same,rise time (10–90%),GluN1–1b B/B; [4],10.3 ± 1.5 ms
same,τfast,GluN1–1b B/B; [5],81 ± 8 ms
same,τslow,GluN1–1b B/B; [5],208 ± 49 ms
same,% fast,GluN1–1b B/B; [6],58 ± 12%
same,τw,GluN1–1b B/B; [7],"155 ± 19 ^*^,$ ms"
same,rise time (10–90%),GluN1–1b AC1/BC2; [4],3.7 ± 0.5 ms
same,τfast,GluN1–1b AC1/BC2; [5],47 ± 4 ms
same,τslow,GluN1–1b AC1/BC2; [5],160 ± 25 ms
same,% fast,GluN1–1b AC1/BC2; [6],69 ± 12%
same,τw,GluN1–1b AC1/BC2; [7],"74 ± 5 ^*^,#,$ ms"
same,rise time (10–90%),[3]; [4],3.9 ± 0.3 ms
same,τfast,"[3]; deactivation, single-exponential fit, 1 mM glutamate 3–5 ms, 100 μM glycine",87 ± 7 ms
same,τw,[3]; [7],"87 ± 7^#,$ ms"
same,rise time (10–90%),GluN1–1a AC1/BC2; [4],10.9 ± 6.2 ms
same,τfast,GluN1–1a AC1/BC2; [5],93 ± 27 ms
same,τslow,GluN1–1a AC1/BC2; [5],180 ± 62 ms
same,% fast,GluN1–1a AC1/BC2; [6],63 ± 19%
same,τw,GluN1–1a AC1/BC2; [7],"140 ± 10 ^*^,#,$ ms"
same,rise time (10–90%),GluN1–1a BC1/BC2; [4],15.1 ± 2.7 ms
same,τfast,GluN1–1a BC1/BC2; [5],205 ± 35 ms
same,τslow,GluN1–1a BC1/BC2; [5],1045 ± 129 ms
same,% fast,GluN1–1a BC1/BC2; [6],58 ± 8%
same,τw,GluN1–1a BC1/BC2; [7],"530 ± 60 ms and 533 ± 58 ^*^,$ ms"
same,rise time (10–90%),GluN1–1b BC1/BC2; [4],8.3 ± 1.6 ms
same,τfast,GluN1–1b BC1/BC2; [5],101 ± 15 ms
same,τslow,GluN1–1b BC1/BC2; [5],360 ± 89 ms
same,% fast,GluN1–1b BC1/BC2; [6],84 ± 6%
same,τw,GluN1–1b BC1/BC2; [7],"140 ± 10 ms and 138 ± 13 ^*^,$ ms"
